From patent US20240245793A1, “PSD-95 INHIBITORS AND USES THEREOF” (priority 2021, published 2024)
Where two headings read alike, the source gives them in different places.

Test system: HeLa cells stably expressing HaloGFP
Experiment: Chloroalkane penetration assay (CAPA), membrane permeability and cellular uptake
Type: cell-based
Excerpt: Since PSD-95 is located intracellularly, it is essential for any drug targeting PSD-95 to efficiently cross the cell membrane. To assess the cellular permeability and delivery to the cytosol of the compounds as defined herein, the cellular chloroalkane penetration assay (CAPA) may be used (Peraro et al. 2018). This assay takes advantage of a modified haloalkane dehalogenase designed to covalently bind chloroalkane (CA) molecules. A HeLa cell line expressing a fusion protein comprising a HaloTag, a green fluorescent protein (GFP) and a mitochondria-targeting peptide is used to report cytosolic delivery. The general format of the CAPA is a pulse-chase assay (Deprey & Kritzer, 2020). Cells expressing the HaloTag enzyme are incubated with CA-tagged peptides. When these CA-peptides penetrate the cell membrane and reach the cytosol, they will bind to and react with the HaloTag (pulse step). Following a washing step, the cells are incubated with a CA-tagged dye that quantitatively penetrates the cell membrane and reacts with remaining unreacted HaloTag sites (chase step). Flow cytometry is used to measure the fluorescence intensity of the cells and the measured fluorescence is inversely proportional to the amount of CA-peptides that reach the penetrated the cells and can thus be used to assess cytosolic delivery. The obtained data is commonly expressed as CP50 values, the concentration at which 50% cell penetration is observed. The CP50 value of a compound may be measured as described in example 4.
The membrane permeability of compounds 10 to 75 was determined in HeLa cells stably expressing HaloGFP exclusively located in the cytosol. Cells were seeded at a density of 40.000 cells/well one day prior to the experiment. After the growth media was aspirated and replaced by 100 μL of Opti-MEM, 25 μL of a prepared serial dilution of the ligand in Opti-MEM was added to the cells (constant DMSO concentration), and the plate was incubated for 4 h at 37° C. and 5% CO2. The contents of the wells were aspirated, and cells were washed with fresh Opti-MEM for 15 min. After aspiration of the wash, the cells were incubated with TAMRA-CA (5 μM) for 15 min. After aspiration of the chase solution, cells were washed with Opti-MEM for 30 min. Following removal of the wash, cells were trypsinized, resuspended in PBS (2% FBS), and analyzed using a benchtop flow cytometer. Using no ligand and no TAMRA-CA control well, the obtained fluorescence intensity data was normalized and plotted as dose-response curves. Reported CP50 values represent half-maximum red fluorescence which behaves inverse to cell penetration of the ligand.

SMILES | CP50 [µM] | CP50 (CA-tagged NPEG4-(IETDV)2 with various CPP-tags, 4 h at 37° C., mean ± SEM (Table 11, FIG. 8)) [µM]
CC(C)[C@H](NC(=O)[C@H](CCCNC(=N)N)NC(=O)[C@@H](NC(=O)[C@H](CCC(=O)O)NC(=O)[C@H](CCCCN)NC(=O)CCOCCOCCN(CCOCCOCCC(=O)N[C@@H](CCCCN)C(=O)N[C@@H](CCC(=O)O)C(=O)N[C@H](C(=O)N[C@@H](CCCNC(=N)N)C(=O)N[C@H](C(=O)O)C(C)C)[C@@H](C)O)C(=O)[C@H](CCCNC(=N)N)NC(=O)[C@H](CCCNC(=N)N)NC(=O)[C@H](CCCNC(=N)N)NC(=O)[C@H](CCCNC(=N)N)NC(=O)[C@H](CCCNC(=N)N)NC(=O)[C@H](CCCNC(=N)N)NC(=O)[C@H](CCCNC(=N)N)NC(=O)[C@H](CCCNC(=N)N)NC(=O)[C@H](CCCNC(=N)N)NC(=O)CCC(=O)NCCOCCOCCCCCCCl)[C@@H](C)O)C(=O)O [Compound 30] | 0.68 ± 0.05 | –
CC(C)[C@H](NC(=O)[C@@H](NC(=O)[C@@H](NC(=O)[C@H](CCC(=O)O)NC(=O)[C@@H](NC(=O)CCOCCOCCN(CCOCCOCCC(=O)N[C@H](C(=O)N[C@@H](CCC(=O)O)C(=O)N[C@H](C(=O)N[C@H](C(=O)N[C@H](C(=O)O)C(C)C)C(C)C)[C@@H](C)O)C(C)C)C(=O)[C@H](CCCNC(=N)N)NC(=O)[C@H](CCCNC(=N)N)NC(=O)[C@H](CCCNC(=N)N)NC(=O)[C@H](CCCNC(=N)N)NC(=O)[C@H](CCCNC(=N)N)NC(=O)[C@H](CCCNC(=N)N)NC(=O)[C@H](CCCNC(=N)N)NC(=O)[C@H](CCCNC(=N)N)NC(=O)[C@H](CCCNC(=N)N)NC(=O)CCC(=O)NCCOCCOCCCCCCCl)C(C)C)[C@@H](C)O)C(C)C)C(=O)O [Compound 34] | 0.84 ± 0.15 | –
CC[C@H](C)[C@H](NC(=O)CCOCCOCCN(CCOCCOCCC(=O)N[C@H](C(=O)N[C@@H](CCC(=O)O)C(=O)N[C@H](C(=O)N[C@@H](CC(=O)O)C(=O)N[C@H](C(=O)O)C(C)C)[C@@H](C)O)[C@@H](C)CC)C(=O)[C@@H](CCCNC(=N)N)NC(=O)[C@@H](CCCNC(=N)N)NC(=O)[C@@H](CCCNC(=N)N)NC(=O)[C@@H](CCC(N)=O)NC(=O)[C@@H](CCCNC(=N)N)NC(=O)[C@@H](CCCNC(=N)N)NC(=O)[C@@H](CCCCN)NC(=O)[C@@H](CCCCN)NC(=O)[C@@H](CCCNC(=N)N)NC(=O)CNC(=O)[C@@H](Cc1ccc(O)cc1)NC(=O)CCC(=O)NCCOCCOCCCCCCCl)C(=O)N[C@@H](CCC(=O)O)C(=O)N[C@H](C(=O)N[C@@H](CC(=O)O)C(=O)N[C@H](C(=O)O)C(C)C)[C@@H](C)O [Compound 39] | – | 10.7 ± 0.7
CC[C@H](C)[C@H](NC(=O)CCOCCOCCN(CCOCCOCCC(=O)N[C@H](C(=O)N[C@@H](CCC(=O)O)C(=O)N[C@H](C(=O)N[C@@H](CC(=O)O)C(=O)N[C@H](C(=O)O)C(C)C)[C@@H](C)O)[C@@H](C)CC)C(=O)[C@H](CO)NC(=O)[C@H](CCC(=O)O)NC(=O)[C@H](CCCNC(=N)N)NC(=O)[C@H](CCCNC(=N)N)NC(=O)[C@H](CCCNC(=N)N)NC(=O)[C@H](CCCCN)NC(=O)[C@H](CCCCN)NC(=O)[C@H](CCCNC(=N)N)NC(=O)[C@H](CO)NC(=O)[C@H](CCC(=O)O)NC(=O)[C@H](CCCNC(=N)N)NC(=O)[C@H](CCCNC(=N)N)NC(=O)[C@H](CCCNC(=N)N)NC(=O)[C@H](CCCCN)NC(=O)[C@H](CCCCN)NC(=O)[C@H](CCCNC(=N)N)NC(=O)CCC(=O)NCCOCCOCCCCCCCl)C(=O)N[C@@H](CCC(=O)O)C(=O)N[C@H](C(=O)N[C@@H](CC(=O)O)C(=O)N[C@H](C(=O)O)C(C)C)[C@@H](C)O [Compound 51] | 3.2 ± 0.5 | –
CC[C@H](C)[C@H](NC(=O)CCOCCOCCN(CCOCCOCCC(=O)N[C@H](C(=O)N[C@@H](CCC(=O)O)C(=O)N[C@H](C(=O)N[C@@H](CC(=O)O)C(=O)N[C@H](C(=O)O)C(C)C)[C@@H](C)O)[C@@H](C)CC)C(=O)[C@H](CCCCN)NC(=O)[C@H](CO)NC(=O)[C@H](Cc1c[nH]cn1)NC(=O)[C@H](C)NC(=O)[C@H](Cc1c[nH]cn1)NC(=O)[C@H](C)NC(=O)[C@H](CCC(N)=O)NC(=O)[C@H](CCCCN)NC(=O)[C@H](CCCNC(=N)N)NC(=O)[C@@H](NC(=O)[C@H](CCCNC(=N)N)NC(=O)[C@H](CCCNC(=N)N)NC(=O)[C@H](CCCNC(=N)N)NC(=O)[C@H](CC(C)C)NC(=O)[C@@H](NC(=O)[C@@H](NC(=O)[C@H](CC(C)C)NC(=O)[C@H](CC(C)C)NC(=O)CCC(=O)NCCOCCOCCCCCCCl)[C@@H](C)CC)[C@@H](C)CC)[C@@H](C)CC)C(=O)N[C@@H](CCC(=O)O)C(=O)N[C@H](C(=O)N[C@@H](CC(=O)O)C(=O)N[C@H](C(=O)O)C(C)C)[C@@H](C)O [Compound 53] | 1.7 ± 0.1 | –
CC[C@H](C)[C@H](NC(=O)CCOCCOCCN(CCOCCOCCC(=O)N[C@H](C(=O)N[C@@H](CCC(=O)O)C(=O)N[C@H](C(=O)N[C@@H](CC(=O)O)C(=O)N[C@H](C(=O)O)C(C)C)[C@@H](C)O)[C@@H](C)CC)C(=O)[C@H](C)NC(=O)[C@H](CC(C)C)NC(=O)[C@H](CCCCN)NC(=O)[C@H](CC(C)C)NC(=O)[C@H](C)NC(=O)[C@H](C)NC(=O)[C@H](CCCCN)NC(=O)[C@H](CC(C)C)NC(=O)[C@H](C)NC(=O)[C@H](CCCCN)NC(=O)[C@H](CC(C)C)NC(=O)[C@H](C)NC(=O)[C@H](CC(C)C)NC(=O)[C@H](CCCCN)NC(=O)[C@H](CC(C)C)NC(=O)[C@H](C)NC(=O)[C@H](CC(C)C)NC(=O)[C@H](CCCCN)NC(=O)CCC(=O)NCCOCCOCCCCCCCl)C(=O)N[C@@H](CCC(=O)O)C(=O)N[C@H](C(=O)N[C@@H](CC(=O)O)C(=O)N[C@H](C(=O)O)C(C)C)[C@@H](C)O [Compound 55] | 3.7 ± 0.3 | –

Second part, led by results:

CP50 [µM] | SMILES | CP50 (CA-tagged NPEG4-(IETDV)2 with various CPP-tags, 4 h at 37° C., mean ± SEM (Table 11, FIG. 8)) [µM]
1.05 ± 0.15 | CC[C@H](C)[C@H](NC(=O)CCOCCOCCN(CCOCCOCCC(=O)N[C@H](C(=O)N[C@@H](CO)C(=O)N[C@H](C(=O)N[C@@H](CC(=O)O)C(=O)N[C@H](C(=O)O)C(C)C)[C@@H](C)O)[C@@H](C)CC)C(=O)[C@H](CCCNC(=N)N)NC(=O)[C@H](CCCNC(=N)N)NC(=O)[C@H](CCCNC(=N)N)NC(=O)[C@H](CCCNC(=N)N)NC(=O)[C@H](CCCNC(=N)N)NC(=O)[C@H](CCCNC(=N)N)NC(=O)[C@H](CCCNC(=N)N)NC(=O)[C@H](CCCNC(=N)N)NC(=O)[C@H](CCCNC(=N)N)NC(=O)CCC(=O)NCCOCCOCCCCCCCl)C(=O)N[C@@H](CO)C(=O)N[C@H](C(=O)N[C@@H](CC(=O)O)C(=O)N[C@H](C(=O)O)C(C)C)[C@@H](C)O [Compound 32] | –
180 ± 8.2 | CC[C@H](C)[C@H](NC(=O)CCOCCOCCN(CCOCCOCCC(=O)N[C@H](C(=O)N[C@@H](CCC(=O)O)C(=O)N[C@H](C(=O)N[C@@H](CC(=O)O)C(=O)N[C@H](C(=O)O)C(C)C)[C@@H](C)O)[C@@H](C)CC)C(=O)[C@@H](CCCNC(=N)N)NC(=O)[C@H](CCCNC(=N)N)NC(=O)[C@@H](CCCCN)NC(=O)[C@H](CCCCN)NC(=O)[C@@H](CCCNC(=N)N)NC(=O)CNC(=O)[C@@H](CCCNC(=N)N)NC(=O)[C@H](CCCNC(=N)N)NC(=O)[C@@H](CCCNC(=N)N)NC(=O)CCC(=O)NCCOCCOCCCCCCCl)C(=O)N[C@@H](CCC(=O)O)C(=O)N[C@H](C(=O)N[C@@H](CC(=O)O)C(=O)N[C@H](C(=O)O)C(C)C)[C@@H](C)O [Compound 41] | –
221 ± 36 | CC[C@H](C)[C@H](NC(=O)CCOCCOCCN(CCOCCOCCC(=O)N[C@H](C(=O)N[C@@H](CCC(=O)O)C(=O)N[C@H](C(=O)N[C@@H](CC(=O)O)C(=O)N[C@H](C(=O)O)C(C)C)[C@@H](C)O)[C@@H](C)CC)C(=O)[C@@H](CCCNC(=N)N)NC(=O)[C@@H](CCCCN)NC(=O)[C@@H](CCCCN)NC(=O)[C@@H](CCCNC(=N)N)NC(=O)[C@@H](CCCNC(=N)N)NC(=O)[C@@H](CCC(N)=O)NC(=O)[C@@H](CCCNC(=N)N)NC(=O)[C@@H](CCCNC(=N)N)NC(=O)[C@@H](CCCNC(=N)N)NC(=O)CCC(=O)NCCOCCOCCCCCCCl)C(=O)N[C@@H](CCC(=O)O)C(=O)N[C@H](C(=O)N[C@@H](CC(=O)O)C(=O)N[C@H](C(=O)O)C(C)C)[C@@H](C)O [Compound 43] | –
161 ± 25 | CC[C@H](C)[C@H](NC(=O)CCOCCOCCN(CCOCCOCCC(=O)N[C@H](C(=O)N[C@@H](CCC(=O)O)C(=O)N[C@H](C(=O)N[C@@H](CC(=O)O)C(=O)N[C@H](C(=O)O)C(C)C)[C@@H](C)O)[C@@H](C)CC)C(=O)[C@@H](CCCNC(=N)N)NC(=O)[C@@H](CCCNC(=N)N)NC(=O)[C@@H](CCCNC(=N)N)NC(=O)[C@@H](CCCNC(=N)N)NC(=O)[C@@H](CCCNC(=N)N)NC(=O)[C@@H](CCCNC(=N)N)NC(=O)[C@@H](CCCNC(=N)N)NC(=O)[C@@H](CCCNC(=N)N)NC(=O)[C@@H](CCCNC(=N)N)NC(=O)CCC(=O)NCCOCCOCCCCCCCl)C(=O)N[C@@H](CCC(=O)O)C(=O)N[C@H](C(=O)N[C@@H](CC(=O)O)C(=O)N[C@H](C(=O)O)C(C)C)[C@@H](C)O [Compound 45] | –
